Measurements as given in patent US20100298141A1, “SUBSTITUTED PYRIDINE N-OXIDE HERBICIDES” (E. I. DU PONT DE NEMOURS AND COMPANY, priority 2007, published 2010).

Assays:
yellow nutsedge = test: Test C pre-/postemergence test; assay type: in vivo, Cyperus esculentus
How it was run: (§1)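 Seeds were planted and treated preemergence with test chemical in a non-phytotoxic solvent mixture containing surfactant. Postemergence applications of the same formulation went onto plants 2 to 18 cm tall (1- to 4-leaf stage). A dash marks no test result.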

bermudagrass = test: Test C pre-/postemergence test; assay type: in vivo, Cynodon dactylon
How it was run: as §1

Goosegrass = test: Test C pre-/postemergence test; assay type: in vivo, Eleusin indica
How it was run: as §1

johnsongrass = test: Test C pre-/postemergence test; assay type: in vivo, Sorghum halepense
How it was run: as §1

crabgrass [1] = test: Test A pre-/postemergence greenhouse test; assay type: in vivo, Digitaria sanguinalis; details: for Crabgrass, Large plant response rating: 0 to 100 scale
How it was run: (§2)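 Sowing in loam/sand; same-day pre (directed soil spray) and post (foliar, 1–2 leaf, 2–10 cm) treatment with surfactant-containing non-phytotoxic solvent formulation; ~10 days in greenhouse; eye-scored injury against untreated plants.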

duck salad = test: Test C flooded paddy test; assay type: in vivo, Heteranthera limosa; details: Flood
How it was run: (§3)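 Under a constant 3 cm flood, test compounds went directly into the paddy water. Following 13 to 15 days of greenhouse growth, treated species and controls were compared by eye.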

barnyardgrass [2] = test: Test A pre-/postemergence greenhouse test; assay type: in vivo, Echinochloa crus-galli; details: for Barnyardgrass plant response rating: 0 to 100 scale
How it was run: as §2

velvetleaf = test: Test A pre-/postemergence greenhouse test; assay type: in vivo, Abutilon theophrasti; details: for Velvetleaf plant response rating: 0 to 100 scale
How it was run: as §2

Italian ryegrass = test: Test C pre-/postemergence test; assay type: in vivo, Lolium multiflorum
How it was run: as §1

soybean = test: Test C pre-/postemergence test; assay type: in vivo, Glycine max
How it was run: as §1

crabgrass [3] = test: Test C pre-/postemergence test; assay type: in vivo, Digitaria sanguinalis
How it was run: as §1

pigweed = test: Test C pre-/postemergence test; assay type: in vivo, Amaranthus retroflexus
How it was run: as §1

green foxtail = test: Test C pre-/postemergence test; assay type: in vivo, Setaria viridis
How it was run: as §1

corn [4] = test: Test C pre-/postemergence test; assay type: in vivo, Zea mays
How it was run: as §1

barnyardgrass [5] = test: Test C flooded paddy test; assay type: in vivo, Echinochloa crus-galli; details: Flood
How it was run: as §3

corn [6] = test: Test A pre-/postemergence greenhouse test; assay type: in vivo, Zea mays; details: for Corn plant response rating: 0 to 100 scale
How it was run: as §2

umbrella sedge = test: Test C flooded paddy test; assay type: in vivo, Cyperus difformis; details: Flood
How it was run: as §3

[7] = 31 g ai/ha, Preemergence, scale 0 to 100
[8] = 62 g ai/ha, preemergence, scale 0 (no effect) to 100 (complete control)
[9] = preemergence, 125 g ai/ha, scale 0 (no effect) to 100 (complete control)
[10] = Postemergence, 125 g ai/ha, 0 is no effect, 100 is complete control
[11] = Postemergence, 500 g ai/ha, 0 is no effect, 100 is complete control
[12] = Preemergence, 125 g ai/ha, 0 no effect, 100 complete control
[13] = Preemergence, 500 g ai/ha, 0 to 100 scale where 0 is no effect and 100 is complete control
[14] = 31 g ai/ha, scale 0 to 100 (0 no effect, 100 complete control)
[15] = 62 g ai/ha, scale 0 to 100, 0 no effect, 100 complete control, 13 to 15 days
[16] = 125 g ai/ha, scale 0 to 100, 0 no effect, 100 complete control, 13 to 15 days
[17] = 250 g ai/ha, scale 0 to 100 (0 no effect, 100 complete control)

SMILES: Cn1nc(C(F)(F)F)c(C(Cl)S(=O)(=O)c2cccc[n+]2[O-])c1Cl (stereo not shown) [Compound 12]
- Nutsedge, Yellow plant response rating (yellow nutsedge; [7]): 45
- Nutsedge, Yellow plant response rating (yellow nutsedge; [8]): 70
- Plant response rating (0 to 100), Nutsedge, Yellow (yellow nutsedge; Preemergence, 250 g ai/ha): 100
- Nutsedge, Yellow plant response rating (yellow nutsedge; [9]): 90
- Bermudagrass plant response rating (bermudagrass; [7]): 100
- Bermudagrass plant response rating (bermudagrass; [8]): 100
- Plant response rating (0 to 100), Bermudagrass (bermudagrass; Preemergence, 250 g ai/ha): 100
- Bermudagrass plant response rating (bermudagrass; [9]): 100
- Goosegrass plant response rating (Goosegrass; [7]): 100
- Goosegrass plant response rating (Goosegrass; [8]): 100
- Plant response rating (0 to 100), Goosegrass (Goosegrass; Preemergence, 250 g ai/ha): 100
- Goosegrass plant response rating (Goosegrass; [9]): 100
- Johnsongrass plant response rating (johnsongrass; [7]): 0
- Johnsongrass plant response rating (johnsongrass; [8]): 70
- Plant response rating (0 to 100), Johnsongrass (johnsongrass; Preemergence, 250 g ai/ha): 100
- Johnsongrass plant response rating (johnsongrass; [9]): 100
- Crabgrass, Large plant response rating (crabgrass [1]; [10]): 60
- Crabgrass, Large plant response rating (crabgrass [1]; [11]): 70
- Crabgrass, Large plant response rating (crabgrass [1]; [12]): 70
- Plant response rating, Crabgrass, Large (crabgrass [1]; [13]): 100
- Plant response rating, Ducksalad (duck salad; [14]): 40
- Plant response rating, Ducksalad (duck salad; [15]): 95
- Plant response rating, Ducksalad (duck salad; [16]): 100
- Plant response rating, Ducksalad (duck salad; [17]): 100
- Barnyardgrass plant response rating (barnyardgrass [2]; [10]): 50
- Barnyardgrass plant response rating (barnyardgrass [2]; [11]): 60
- Barnyardgrass plant response rating (barnyardgrass [2]; [12]): 90
- Plant response rating, Barnyardgrass (barnyardgrass [2]; [13]): 90
- Velvetleaf plant response rating (velvetleaf; [10]): 0
- Velvetleaf plant response rating (velvetleaf; [11]): 0
- Velvetleaf plant response rating (velvetleaf; [12]): 0
- Plant response rating, Velvetleaf (velvetleaf; [13]): 0
- Ryegrass, Italian plant response rating (Italian ryegrass; [7]): 0
- Ryegrass, Italian plant response rating (Italian ryegrass; [8]): 70
- Plant response rating (0 to 100), Ryegrass, Italian (Italian ryegrass; Preemergence, 250 g ai/ha): 85
- Ryegrass, Italian plant response rating (Italian ryegrass; [9]): 70
- Soybean plant response rating (soybean; [7]): 0
- Soybean plant response rating (soybean; [8]): 0
- Plant response rating (0 to 100), Soybean (soybean; Preemergence, 250 g ai/ha): 10
- Soybean plant response rating (soybean; [9]): 0
- Crabgrass, Large plant response rating (crabgrass [3]; [7]): 100
- Crabgrass, Large plant response rating (crabgrass [3]; [8]): 100
- Plant response rating (0 to 100), Crabgrass, Large (crabgrass [3]; Preemergence, 250 g ai/ha): 100
- Crabgrass, Large plant response rating (crabgrass [3]; [9]): 100
- Pigweed plant response rating (pigweed; [7]): 100
- Pigweed plant response rating (pigweed; [8]): 100
- Plant response rating (0 to 100), Pigweed (pigweed; Preemergence, 250 g ai/ha): 100
- Pigweed plant response rating (pigweed; [9]): 100
- Foxtail, Green plant response rating (green foxtail; [7]): 100
- Plant response rating (0 to 100), Foxtail, Green (green foxtail; Preemergence, 250 g ai/ha): 100
- Foxtail, Green plant response rating (green foxtail; [9]): 100
- Corn plant response rating (corn [4]; [7]): 0
- Corn plant response rating (corn [4]; [8]): 0
- Plant response rating (0 to 100), Corn (corn [4]; Preemergence, 250 g ai/ha): 45
- Corn plant response rating (corn [4]; [9]): 0
- Plant response rating, Barnyardgrass (barnyardgrass [5]; [14]): 0
- Plant response rating, Barnyardgrass (barnyardgrass [5]; [15]): 50
- Plant response rating, Barnyardgrass (barnyardgrass [5]; [16]): 80
- Plant response rating, Barnyardgrass (barnyardgrass [5]; [17]): 85
- Corn plant response rating (corn [6]; [10]): 0
- Corn plant response rating (corn [6]; [11]): 0
- Corn plant response rating (corn [6]; [12]): 0
- Plant response rating, Corn (corn [6]; [13]): 30
- Plant response rating, Sedge, Umbrella (umbrella sedge; [14]): 90
- Plant response rating, Sedge, Umbrella (umbrella sedge; [15]): 95
- Plant response rating, Sedge, Umbrella (umbrella sedge; [16]): 100
- Plant response rating, Sedge, Umbrella (umbrella sedge; [17]): 100
